Assays:
[1] = biological target: T1, Sucrase-isomaltase, intestinal (Rattus norvegicus, UniProt P23739); assay: Inhibition of Wistar rat intestinal isomaltase assessed as inhibition of D-glucose release after 30 mins by spectrophotometry
[2] = biological target: T1, Sucrase-isomaltase, intestinal; assay: Inhibition of Wistar rat intestinal sucrase assessed as inhibition of D-glucose release after 30 mins by spectrophotometry
[3] = Inhibition of Wistar rat intestinal maltase assessed as inhibition of D-glucose release after 30 mins by spectrophotometry

T1 sequence (P23739 1-1013 limits assumed): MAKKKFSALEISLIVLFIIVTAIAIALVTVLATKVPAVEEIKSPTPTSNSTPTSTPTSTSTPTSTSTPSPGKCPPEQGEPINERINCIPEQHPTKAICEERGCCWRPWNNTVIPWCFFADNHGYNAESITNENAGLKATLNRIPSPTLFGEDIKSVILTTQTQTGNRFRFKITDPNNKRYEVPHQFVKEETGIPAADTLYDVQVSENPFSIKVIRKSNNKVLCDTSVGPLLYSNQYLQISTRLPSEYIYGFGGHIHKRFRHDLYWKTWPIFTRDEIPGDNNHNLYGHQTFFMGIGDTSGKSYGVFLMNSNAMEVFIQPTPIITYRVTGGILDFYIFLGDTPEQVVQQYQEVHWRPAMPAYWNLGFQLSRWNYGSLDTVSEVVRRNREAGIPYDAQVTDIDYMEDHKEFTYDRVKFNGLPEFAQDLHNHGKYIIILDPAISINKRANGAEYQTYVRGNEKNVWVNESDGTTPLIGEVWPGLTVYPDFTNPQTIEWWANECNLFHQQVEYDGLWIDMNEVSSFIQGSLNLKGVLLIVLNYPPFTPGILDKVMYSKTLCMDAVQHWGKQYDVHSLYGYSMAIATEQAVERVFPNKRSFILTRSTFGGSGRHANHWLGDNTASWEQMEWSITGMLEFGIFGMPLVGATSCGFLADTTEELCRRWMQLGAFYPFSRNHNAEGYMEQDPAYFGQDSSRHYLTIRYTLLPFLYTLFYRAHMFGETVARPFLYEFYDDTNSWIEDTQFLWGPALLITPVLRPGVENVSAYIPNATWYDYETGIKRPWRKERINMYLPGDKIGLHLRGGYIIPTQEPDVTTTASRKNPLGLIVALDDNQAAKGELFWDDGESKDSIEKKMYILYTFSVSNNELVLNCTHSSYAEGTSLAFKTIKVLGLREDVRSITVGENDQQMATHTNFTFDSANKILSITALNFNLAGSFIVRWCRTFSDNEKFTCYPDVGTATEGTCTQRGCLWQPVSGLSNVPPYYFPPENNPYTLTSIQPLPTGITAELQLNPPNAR
T1 sequence (P23739 1014-1841 limits assumed): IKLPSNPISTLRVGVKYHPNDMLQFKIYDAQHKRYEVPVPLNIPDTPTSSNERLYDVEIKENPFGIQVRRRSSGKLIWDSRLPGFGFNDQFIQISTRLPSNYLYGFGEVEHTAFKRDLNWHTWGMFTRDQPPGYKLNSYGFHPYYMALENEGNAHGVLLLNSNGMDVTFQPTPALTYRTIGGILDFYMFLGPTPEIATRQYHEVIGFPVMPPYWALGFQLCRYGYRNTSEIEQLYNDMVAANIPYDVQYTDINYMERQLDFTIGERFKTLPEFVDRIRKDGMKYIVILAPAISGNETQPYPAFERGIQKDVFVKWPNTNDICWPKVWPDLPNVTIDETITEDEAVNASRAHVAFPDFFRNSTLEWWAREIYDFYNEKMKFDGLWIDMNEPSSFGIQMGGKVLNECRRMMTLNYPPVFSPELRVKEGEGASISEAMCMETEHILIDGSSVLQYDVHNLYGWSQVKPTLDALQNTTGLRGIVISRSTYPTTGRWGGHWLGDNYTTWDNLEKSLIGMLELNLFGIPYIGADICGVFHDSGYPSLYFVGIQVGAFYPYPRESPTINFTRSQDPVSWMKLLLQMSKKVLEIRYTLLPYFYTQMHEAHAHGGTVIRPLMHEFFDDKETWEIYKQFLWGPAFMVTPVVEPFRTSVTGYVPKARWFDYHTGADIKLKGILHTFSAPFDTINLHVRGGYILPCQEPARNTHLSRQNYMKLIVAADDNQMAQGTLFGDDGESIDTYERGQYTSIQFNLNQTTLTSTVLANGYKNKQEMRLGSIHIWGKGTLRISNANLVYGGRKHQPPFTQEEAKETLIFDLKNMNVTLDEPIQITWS

Row | SMILES | IC50 [1] | IC50 [2] | IC50 [3]
1 | COc1ccc(CCCC[C@@H]2N[C@@H](CO)[C@H](O)[C@H]2O)cc1 | 1800 nM | 130 nM | –
2 | OC[C@@H]1N[C@@H](CCCCc2ccc(F)cc2)[C@H](O)[C@H]1O | 3000 nM | 170 nM | –
3 | OC[C@@H]1N[C@@H](CCCCc2ccccc2)[C@H](O)[C@H]1O | – | – | 220 nM
4 | OC[C@@H]1N[C@@H](CCCCc2ccc(O)cc2)[C@H](O)[C@H]1O | 6000 nM | 110 nM | –

Results, then the compound that gave them:

Row | IC50 [1] | IC50 [2] | IC50 [3] | SMILES
5 | 630 nM | 45 nM | – | Cc1ccc(CCCC[C@@H]2N[C@@H](CO)[C@H](O)[C@H]2O)cc1
6 | 220 nM | 26 nM | – | OC[C@@H]1N[C@@H](CCCCc2cc(F)cc(F)c2)[C@H](O)[C@H]1O

Reference: ChEMBL document CHEMBL3351473, “Synthesis and biological evaluation of α-1-C-4'-arylbutyl-L-arabinoiminofuranoses, a new class of α-glucosidase inhibitors” (Bioorg Med Chem Lett, 2014)
